Measured values from article PMC3814616, “BRAF inhibitors suppress apoptosis through off-target inhibition of JNK signaling” (eLife, 2013).

How the values were obtained:
Assay in all cases: Quantitative competitive binding assay (KINOMEscan)
ASK1 (MAP3K5) = biological target: T1, ASK1 (MAP3K5) (Homo sapiens, UniProt Q99683); conditions: for IC50: estimated Kd, averaged pointwise estimates, transformed Hill equation, read-out: Calculated estimate of IC50; for remaining binding at 0.05 µM: read-out: Percent control (50 nM); for remaining binding at 0.2 µM: read-out: Percent control (200 nM); for remaining binding at 1 µM: read-out: Percent control (1000 nM); for remaining binding at 10 µM: read-out: Percent control (10 μM)
T1 construct: purchased KINOMEscan (DiscoveRx), San Diego, CA
T1 sequence (Q99683 1-1374): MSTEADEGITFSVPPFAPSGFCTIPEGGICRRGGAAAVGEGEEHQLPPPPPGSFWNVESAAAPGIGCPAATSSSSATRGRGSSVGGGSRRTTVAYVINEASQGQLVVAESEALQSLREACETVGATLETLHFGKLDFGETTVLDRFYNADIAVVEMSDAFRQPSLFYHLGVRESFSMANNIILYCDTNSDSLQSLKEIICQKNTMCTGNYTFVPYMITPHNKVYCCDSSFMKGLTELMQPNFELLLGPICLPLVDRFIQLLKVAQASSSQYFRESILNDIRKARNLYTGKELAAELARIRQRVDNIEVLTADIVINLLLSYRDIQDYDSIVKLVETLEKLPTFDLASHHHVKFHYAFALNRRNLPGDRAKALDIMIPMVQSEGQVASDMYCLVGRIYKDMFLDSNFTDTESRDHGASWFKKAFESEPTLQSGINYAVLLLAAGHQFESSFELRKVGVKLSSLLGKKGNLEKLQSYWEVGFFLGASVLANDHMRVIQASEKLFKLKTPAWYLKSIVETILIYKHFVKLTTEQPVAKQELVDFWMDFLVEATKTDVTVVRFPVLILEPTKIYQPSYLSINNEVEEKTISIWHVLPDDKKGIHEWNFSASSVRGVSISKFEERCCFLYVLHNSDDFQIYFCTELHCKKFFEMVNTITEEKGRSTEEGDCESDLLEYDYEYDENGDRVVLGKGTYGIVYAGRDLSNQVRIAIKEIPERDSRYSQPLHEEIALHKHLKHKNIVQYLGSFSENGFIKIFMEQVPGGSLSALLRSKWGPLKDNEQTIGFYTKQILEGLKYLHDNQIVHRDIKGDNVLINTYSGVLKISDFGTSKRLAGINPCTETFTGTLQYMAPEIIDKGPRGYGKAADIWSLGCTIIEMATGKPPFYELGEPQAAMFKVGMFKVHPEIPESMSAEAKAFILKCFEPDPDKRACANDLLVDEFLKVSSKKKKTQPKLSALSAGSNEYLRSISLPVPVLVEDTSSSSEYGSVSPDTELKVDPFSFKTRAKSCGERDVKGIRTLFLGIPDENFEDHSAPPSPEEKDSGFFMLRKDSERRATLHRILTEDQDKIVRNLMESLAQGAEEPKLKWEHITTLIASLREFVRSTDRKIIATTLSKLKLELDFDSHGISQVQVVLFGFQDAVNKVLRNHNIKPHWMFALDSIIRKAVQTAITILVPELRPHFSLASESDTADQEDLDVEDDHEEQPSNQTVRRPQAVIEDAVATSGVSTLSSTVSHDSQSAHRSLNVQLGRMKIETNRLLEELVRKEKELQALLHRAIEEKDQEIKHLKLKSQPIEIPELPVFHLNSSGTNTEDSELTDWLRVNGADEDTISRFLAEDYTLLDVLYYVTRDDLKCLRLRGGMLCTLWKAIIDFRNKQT

MST1 (STK4) = biological target: T2, MST1 (STK4) (Homo sapiens, UniProt Q13043); conditions: for remaining binding at 0.05 µM: read-out: Percent control (50 nM); for remaining binding at 0.2 µM: read-out: Percent control (200 nM); for remaining binding at 1 µM: read-out: Percent control (1000 nM); for remaining binding at 10 µM: read-out: Percent control (10 μM)
T2 construct: purchased KINOMEscan (DiscoveRx), San Diego, CA
T2 sequence (Q13043 1-487): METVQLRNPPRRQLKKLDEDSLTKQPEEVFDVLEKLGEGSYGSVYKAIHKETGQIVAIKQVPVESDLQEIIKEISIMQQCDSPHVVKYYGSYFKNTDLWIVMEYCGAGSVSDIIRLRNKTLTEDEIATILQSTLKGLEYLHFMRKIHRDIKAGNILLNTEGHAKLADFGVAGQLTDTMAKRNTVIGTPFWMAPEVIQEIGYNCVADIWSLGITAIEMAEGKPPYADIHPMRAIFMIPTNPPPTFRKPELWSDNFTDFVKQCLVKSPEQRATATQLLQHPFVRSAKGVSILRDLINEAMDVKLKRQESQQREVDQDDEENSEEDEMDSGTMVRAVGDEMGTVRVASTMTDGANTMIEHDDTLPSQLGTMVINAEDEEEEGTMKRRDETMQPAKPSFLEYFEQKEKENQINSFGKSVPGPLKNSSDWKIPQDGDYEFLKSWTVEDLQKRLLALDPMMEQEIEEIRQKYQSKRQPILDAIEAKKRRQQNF

MAP4K3 = biological target: T3, MAP4K3 (Homo sapiens, UniProt Q8IVH8); conditions: for remaining binding at 0.05 µM: read-out: Percent control (50 nM); for remaining binding at 0.2 µM: read-out: Percent control (200 nM); for remaining binding at 1 µM: read-out: Percent control (1000 nM); for remaining binding at 10 µM: read-out: Percent control (10 μM)
T3 construct: purchased KINOMEscan (DiscoveRx), San Diego, CA
T3 sequence (Q8IVH8 1-894): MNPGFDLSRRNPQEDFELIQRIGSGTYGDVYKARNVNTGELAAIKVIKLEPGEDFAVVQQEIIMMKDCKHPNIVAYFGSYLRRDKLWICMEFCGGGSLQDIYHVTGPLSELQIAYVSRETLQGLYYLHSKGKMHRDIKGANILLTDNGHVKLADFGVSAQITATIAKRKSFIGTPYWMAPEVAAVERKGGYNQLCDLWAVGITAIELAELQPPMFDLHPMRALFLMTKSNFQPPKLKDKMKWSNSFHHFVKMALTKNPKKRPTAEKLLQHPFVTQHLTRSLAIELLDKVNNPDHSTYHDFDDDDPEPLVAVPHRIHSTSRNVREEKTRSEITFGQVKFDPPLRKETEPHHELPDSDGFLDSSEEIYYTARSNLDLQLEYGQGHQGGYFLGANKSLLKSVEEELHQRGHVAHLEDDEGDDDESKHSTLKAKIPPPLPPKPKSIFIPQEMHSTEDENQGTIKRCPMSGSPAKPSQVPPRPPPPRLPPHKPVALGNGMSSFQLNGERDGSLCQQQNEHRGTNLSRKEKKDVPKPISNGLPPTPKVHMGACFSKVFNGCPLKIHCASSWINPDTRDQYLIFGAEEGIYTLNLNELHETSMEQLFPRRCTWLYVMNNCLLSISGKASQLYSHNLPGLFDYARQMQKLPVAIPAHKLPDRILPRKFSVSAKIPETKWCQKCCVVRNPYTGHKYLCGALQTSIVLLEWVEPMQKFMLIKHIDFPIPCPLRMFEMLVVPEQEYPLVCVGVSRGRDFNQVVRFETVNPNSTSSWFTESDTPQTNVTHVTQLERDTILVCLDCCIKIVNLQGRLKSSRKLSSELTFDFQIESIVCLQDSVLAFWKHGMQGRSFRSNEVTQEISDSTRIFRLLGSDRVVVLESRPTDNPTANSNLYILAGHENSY

Structure (SMILES)	IC50 (ASK1 (MAP3K5))	remaining binding at 0.05 µM (ASK1 (MAP3K5))	remaining binding at 0.2 µM (ASK1 (MAP3K5))	remaining binding at 1 µM (ASK1 (MAP3K5))	remaining binding at 10 µM (ASK1 (MAP3K5))	IC50 (MST1 (STK4); estimated Kd, averaged pointwise estimates, transformed Hill equation, read-out: Calculated estimate of IC50)	remaining binding at 0.05 µM (MST1 (STK4))	remaining binding at 0.2 µM (MST1 (STK4))	remaining binding at 1 µM (MST1 (STK4))	remaining binding at 10 µM (MST1 (STK4))	remaining binding at 0.05 µM (MAP4K3)	remaining binding at 0.2 µM (MAP4K3)	remaining binding at 1 µM (MAP4K3)	remaining binding at 10 µM (MAP4K3)
CCCS(=O)(=O)Nc1ccc(F)c(C(=O)c2c[nH]c3ncc(Cl)cc23)c1F [PLX4720]	14.2 µM	89%	98%	97%	100%	6.71 µM	100%	93%	84%	55%	100%	95%	90%	56%
CCCS(=O)(=O)Nc1ccc(F)c(C(=O)c2c[nH]c3ncc(-c4ccc(Cl)cc4)cc23)c1F [vemurafenib]	12 µM	90%	94%	97%	100%		99%	83%	51%	12%	80%	90%	82%	24%
